In patent US11090313B2, “Methods for inhibiting muscle atrophy” (UNIVERSITY OF IOWA RESEARCH FOUNDATION, priority 2010, dated 2021):

What was measured:
[1] = system: extensor digitorum longus and peroneus muscles; experiment: Ex vivo specific tetanic force of muscles from mice fed ursolic acid; type: in vivo, mouse
From the text: Briefly, six-week old male C57BL/6 mice were provided either standard diet or diet containing 0.27% ursolic acid for 16 weeks before being euthanized. The lower hindlimb was removed (by transsecting the upper hindlimb mid-way through the femur), and placed in Krebs solution aerated with 95% 02 and 5% C02. The gastrocnemius, soleus and tibialis anterior muscles, as well as the distal half of the tibia and fibula were then removed and discarded, leaving the extensor digitorum longus and peroneus muscles with their origins and insertions intact. A suture was placed through the proximal tendon and secured to the distal femur fragment. This ex vivo preparation was then mounted vertically in a water jacket bath (Aurora Scientific 1200A Intact Muscle Test System, filled with aerated Krebs solution) by attaching the suture to a servo-controlled lever (superiorly) and clamping the metatarsals (inferiorly). Passive muscle force was adjusted to a baseline of 1 g, and then muscles were stimulated with supramaximal voltage (80 V) at 100 Hz. The mean time from euthanasia to maximal force measurements was 10 min. After force measurements, muscles were removed and weighed in order to calculate specific titanic force. […] Data are means±SEM from 5-6 mice per diet. P-values were determined with a t-test.

[2] = system: gastrocnemius muscle mRNA; experiment: Exon expression arrays of gastrocnemius muscle mRNA in mice fed ursolic acid; type: in vivo, mouse; conditions: 0.27% ursolic acid in chow 5 weeks
Procedure: Following harvest, skeletal muscle samples were immediately placed in RNAlater (Ambion) and stored at −80° C. until further use. […] These raw microarray data from humans and mice have been deposited in NCBI's Gene Expression Omnibus (“GEO”) and are accessible through GEO Series accession numbers GSE28016 and GSE28017, respectively. Exon array studies of the effects of fasting on mouse skeletal muscle, and the effects of spinal cord injury on human skeletal muscle were described previously (Adams C M, et al. (2011) Muscle & nerve 43(1):65-75; Ebert S M, et al. (2010) Molecular Endocrinology 24(4):790-799).
To test this hypothesis, an unbiased approach was used, specifically exon expression arrays were used to analyze gastrocnemius muscle mRNA expression in mice that had been fed diets lacking or containing ursolic acid for 5 weeks. […] Each array assessed pooled gastrocnemius RNA from two mice. Stringent criteria were used for ursolic acid-induced effects on mRNA levels (P<0.005), and mRNAs with low levels of expression were disregarded (i.e. only transcripts that were increased to a mean log2 hybridization signal ≥8, or repressed from a mean log2 hybridization signal ≥8 were included).

[3] = 0.27% ursolic acid diet 16 weeks vs standard diet

C[C@H]1[C@H](C)CC[C@]2(C(=O)O)CC[C@]3(C)C(=CC[C@@H]4[C@@]5(C)CC[C@H](O)C(C)(C)[C@@H]5CC[C@]43C)[C@H]12 [ursolic acid] was tested, and the maximal tetanic force [1, 3] was “did not differ between the two groups”, the “muscle weight (extensor digitorum longus and peroneus)” value [1, 3] was “did not differ between the two groups” and the “specific force generated by muscles ex vivo” value ([1]; 0.27% ursolic acid diet 16 weeks, 80 V, 100 Hz) was “increased the specific force generated by muscles ex vivo”. For the same compound, the “levels of mRNAs encoding myostatin, twist or myogenin” value ([2]; gastrocnemius) was “did not alter levels of mRNAs encoding myostatin”, the “levels of IGF1 exons (exons 2-6)” value ([2]; gastrocnemius exon arrays) was “increased levels of all measured IGF1 exons” and the “2310016M24Rik mRNA Change (mean log2, ursolic acid diet minus control diet)” value ([2]; mice, gastrocnemius) was 0.12 log2. For the same compound, the “2610507B11Rik mRNA Change (mean log2, ursolic acid diet minus control diet)” value ([2]; mice, gastrocnemius) was 0.14 log2, the “Acadm mRNA Change (mean log2, ursolic acid diet minus control diet)” value ([2]; mice, gastrocnemius) was −0.11 log2 and the “Adprhl1 mRNA Change (mean log2, ursolic acid diet minus control diet)” value ([2]; mice, gastrocnemius) was −0.26 log2. The “Ahsa2 mRNA Change (mean log2, ursolic acid diet minus control diet)” value ([2]; mice, gastrocnemius) was 0.18 log2, the “Arfgap2 mRNA Change (mean log2, ursolic acid diet minus control diet)” value ([2]; mice, gastrocnemius) was 0.30 log2 and the “Asb5 mRNA Change (mean log2, ursolic acid diet minus control diet)” value ([2]; mice, gastrocnemius) was 0.21 log2. The “BC004004 mRNA Change (mean log2, ursolic acid diet minus control diet)” value ([2]; mice, gastrocnemius) was 0.06 log2, the “C3 mRNA Change (mean log2, ursolic acid diet minus control diet)” value ([2]; mice, gastrocnemius) was 0.70 log2 and the “Cacna1s mRNA Change (mean log2, ursolic acid diet minus control diet)” value ([2]; mice, gastrocnemius) was −0.22 log2. The “Cd24a mRNA Change (mean log2, ursolic acid diet minus control diet)” value ([2]; mice, gastrocnemius) was 0.28 log2, the “Ctsb mRNA Change (mean log2, ursolic acid diet minus control diet)” value ([2]; mice, gastrocnemius) was 0.16 log2 and the “D0H4S114 mRNA Change (mean log2, ursolic acid diet minus control diet)” value ([2]; mice, gastrocnemius) was 0.15 log2. The “D4Wsu53e mRNA Change (mean log2, ursolic acid diet minus control diet)” value ([2]; mice, gastrocnemius) was −0.18 log2, the “Ddit4l mRNA Change (mean log2, ursolic acid diet minus control diet)” value ([2]; mice, gastrocnemius) was −0.32 log2 and the “Eef1e1 mRNA Change (mean log2, ursolic acid diet minus control diet)” value ([2]; mice, gastrocnemius) was 0.15 log2. The “Eif4g3 mRNA Change (mean log2, ursolic acid diet minus control diet)” value ([2]; mice, gastrocnemius) was −0.12 log2, the “Fbp2 mRNA Change (mean log2, ursolic acid diet minus control diet)” value ([2]; mice, gastrocnemius) was 0.37 log2 and the “Fbxo32 (Atrogin-1) mRNA Change (mean log2, ursolic acid diet minus control diet)” value ([2]; mice, gastrocnemius) was −0.35 log2. For the same compound, the “Fhl3 mRNA Change (mean log2, ursolic acid diet minus control diet)” value ([2]; mice, gastrocnemius) was 0.31 log2, the “Fmo1 mRNA Change (mean log2, ursolic acid diet minus control diet)” value ([2]; mice, gastrocnemius) was 0.47 log2 and the “Foxn3 mRNA Change (mean log2, ursolic acid diet minus control diet)” value ([2]; mice, gastrocnemius) was −0.09 log2. The “Gfm1 mRNA Change (mean log2, ursolic acid diet minus control diet)” value ([2]; mice, gastrocnemius) was 0.12 log2, the “Ggct mRNA Change (mean log2, ursolic acid diet minus control diet)” value ([2]; mice, gastrocnemius) was 0.24 log2 and the “Ghitm mRNA Change (mean log2, ursolic acid diet minus control diet)” value ([2]; mice, gastrocnemius) was 0.05 log2. For the same compound, the “Golga4 mRNA Change (mean log2, ursolic acid diet minus control diet)” value ([2]; mice, gastrocnemius) was −0.14 log2, the “Gpx1 mRNA Change (mean log2, ursolic acid diet minus control diet)” value ([2]; mice, gastrocnemius) was 0.36 log2 and the “H19 mRNA Change (mean log2, ursolic acid diet minus control diet)” value ([2]; mice, gastrocnemius) was 0.39 log2. The “Hipk2 mRNA Change (mean log2, ursolic acid diet minus control diet)” value ([2]; mice, gastrocnemius) was 0.38 log2, the “Hk2 mRNA Change (mean log2, ursolic acid diet minus control diet)” value ([2]; mice, gastrocnemius) was 0.26 log2 and the “Hspb8 mRNA Change (mean log2, ursolic acid diet minus control diet)” value ([2]; mice, gastrocnemius) was 0.32 log2. The “Hsph1 mRNA Change (mean log2, ursolic acid diet minus control diet)” value ([2]; mice, gastrocnemius) was 0.30 log2, the “Igf1 mRNA Change (mean log2, ursolic acid diet minus control diet)” value ([2]; mice, gastrocnemius) was 0.56 log2 and the “Klhl31 mRNA Change (mean log2, ursolic acid diet minus control diet)” value ([2]; mice, gastrocnemius) was −0.09 log2. The “Krr1 mRNA Change (mean log2, ursolic acid diet minus control diet)” value ([2]; mice, gastrocnemius) was 0.15 log2, the “Lsm14a mRNA Change (mean log2, ursolic acid diet minus control diet)” value ([2]; mice, gastrocnemius) was 0.18 log2 and the “Lum mRNA Change (mean log2, ursolic acid diet minus control diet)” value ([2]; mice, gastrocnemius) was 0.61 log2. For the same compound, the “Lyz2 mRNA Change (mean log2, ursolic acid diet minus control diet)” value ([2]; mice, gastrocnemius) was 0.71 log2, the “Mlec mRNA Change (mean log2, ursolic acid diet minus control diet)” value ([2]; mice, gastrocnemius) was −0.19 log2 and the “Mrpl46 mRNA Change (mean log2, ursolic acid diet minus control diet)” value ([2]; mice, gastrocnemius) was 0.15 log2. The “Musk mRNA Change (mean log2, ursolic acid diet minus control diet)” value ([2]; mice, gastrocnemius) was 0.31 log2, the “Nampt mRNA Change (mean log2, ursolic acid diet minus control diet)” value ([2]; mice, gastrocnemius) was 0.41 log2 and the “Ndufaf4 mRNA Change (mean log2, ursolic acid diet minus control diet)” value ([2]; mice, gastrocnemius) was 0.14 log2. For the same compound, the “Ndufs2 mRNA Change (mean log2, ursolic acid diet minus control diet)” value ([2]; mice, gastrocnemius) was 0.14 log2, the “Ndufs4 mRNA Change (mean log2, ursolic acid diet minus control diet)” value ([2]; mice, gastrocnemius) was 0.14 log2 and the “Nnt mRNA Change (mean log2, ursolic acid diet minus control diet)” value ([2]; mice, gastrocnemius) was −0.24 log2. For the same compound, the “Npc1 mRNA Change (mean log2, ursolic acid diet minus control diet)” value ([2]; mice, gastrocnemius) was 0.22 log2, the “Nrap mRNA Change (mean log2, ursolic acid diet minus control diet)” value ([2]; mice, gastrocnemius) was −0.14 log2 and the “Ostn mRNA Change (mean log2, ursolic acid diet minus control diet)” value ([2]; mice, gastrocnemius) was 0.43 log2. For the same compound, the “Paip2b mRNA Change (mean log2, ursolic acid diet minus control diet)” value ([2]; mice, gastrocnemius) was −0.16 log2, the “Parp3 mRNA Change (mean log2, ursolic acid diet minus control diet)” value ([2]; mice, gastrocnemius) was 0.32 log2 and the “Pde4dip mRNA Change (mean log2, ursolic acid diet minus control diet)” value ([2]; mice, gastrocnemius) was −0.18 log2. The “Pdha1 mRNA Change (mean log2, ursolic acid diet minus control diet)” value ([2]; mice, gastrocnemius) was 0.18 log2, the “Pnn mRNA Change (mean log2, ursolic acid diet minus control diet)” value ([2]; mice, gastrocnemius) was −0.18 log2 and the “Prdx5 mRNA Change (mean log2, ursolic acid diet minus control diet)” value ([2]; mice, gastrocnemius) was 0.10 log2. For the same compound, the “Psma2 mRNA Change (mean log2, ursolic acid diet minus control diet)” value ([2]; mice, gastrocnemius) was 0.15 log2, the “Sepp1 mRNA Change (mean log2, ursolic acid diet minus control diet)” value ([2]; mice, gastrocnemius) was 0.35 log2 and the “Sepx1 mRNA Change (mean log2, ursolic acid diet minus control diet)” value ([2]; mice, gastrocnemius) was 0.28 log2. The “Sfpq mRNA Change (mean log2, ursolic acid diet minus control diet)” value ([2]; mice, gastrocnemius) was −0.18 log2, the “Sfrs5 mRNA Change (mean log2, ursolic acid diet minus control diet)” value ([2]; mice, gastrocnemius) was −0.22 log2 and the “Smox mRNA Change (mean log2, ursolic acid diet minus control diet)” value ([2]; mice, gastrocnemius) was 0.81 log2. For the same compound, the “Sod2 mRNA Change (mean log2, ursolic acid diet minus control diet)” value ([2]; mice, gastrocnemius) was 0.12 log2, the “Sqstm1 mRNA Change (mean log2, ursolic acid diet minus control diet)” value ([2]; mice, gastrocnemius) was 0.12 log2 and the “Ssr4 mRNA Change (mean log2, ursolic acid diet minus control diet)” value ([2]; mice, gastrocnemius) was 0.14 log2. For the same compound, the “Trappc2l mRNA Change (mean log2, ursolic acid diet minus control diet)” value ([2]; mice, gastrocnemius) was 0.16 log2, the “Trip10 mRNA Change (mean log2, ursolic acid diet minus control diet)” value ([2]; mice, gastrocnemius) was 0.23 log2 and the “Tyrobp mRNA Change (mean log2, ursolic acid diet minus control diet)” value ([2]; mice, gastrocnemius) was 0.69 log2. The “Ube2l3 mRNA Change (mean log2, ursolic acid diet minus control diet)” value ([2]; mice, gastrocnemius) was 0.16 log2 and the “Vps29 mRNA Change (mean log2, ursolic acid diet minus control diet)” value ([2]; mice, gastrocnemius) was 0.20 log2.
